Assays:
Type in all cases: cell-based
[1] = system: A53T a-syn-CHMP2B interaction; assay: Co-immunoprecipitation: disruption of a-syn-CHMP2B interaction; conditions: HEK293 co-immunoprecipitation
Method: HEK293T cells were co-transfected with Flag-tagged target protein, HA-tagged source protein, and GFP-tagged peptide or GFP. Cells were lysed 48 h after transfections with radioimmune precipitation assay buffer (50 mM Tris-HCl pH 7.4, 1% Nonidet P-40, 150 mM NaCl, 1 mM EDTA, 10 mM Na3VO4, 10 mM sodium pyrophosphate, 25 mM NaF, 1× protease inhibitor mixture (Sigma)) for 30 min at 4 °C and co-immunoprecipitated with Flag beads (Clontech). The resulting immunocomplexes were analyzed by immunoblot using the appropriate antibodies. Protein samples were separated using 4–20% Mini-PROTEAN Tris-glycine gels (Bio-Rad) transferred to PVDF membranes and blocked in 5% milk containing PBS-Tween-20 (0.1%) for 1 h. PVDF membranes were then incubated with specified primary antibodies followed by incubation with horseradish peroxidase-conjugated secondary antibodies (anti-mouse HRP-linked, Cell Signaling, catalog #7076, 1:5000; anti-rabbit HRP-linked, Cell Signaling, catalog #7074, 1:5000) and detected using enhanced chemiluminescence (GE Healthcare). HA antibodies were obtained from Santa Cruz (catalog #7392, 1:2000), GFP antibodies were purchased from Abcam (catalog #ab290, 1:2000), and Flag antibodies were purchased from Sigma (catalog #A8592, 1:1000).

a-syn-CHMP2B interaction = assay: Proximity ligation assay, endogenous a-syn-CHMP2B in rat cortical neurons
Method: PLA was performed on fixed primary neurons using Duolink® in situ red starter kit mouse/rabbit (Sigma–Aldrich) according to the manufacturer’s instructions. Fixed neurons were permeabilized with 0.1% Triton-X-100 in PBS for 10 min, washed three times with PBS, and incubated with blocking solution for 30 min at 37 °C in a humidity chamber. Primary antibodies (mouse anti-a-syn (clone 42) (BD Biosciences, catalog #610787, 1:500) and rabbit anti-CHMP2B (Abcam, catalog #ab33174, 1:50)) were diluted using antibody diluent. After blocking, neurons were incubated with primary antibodies at room temperature for 1 h in a humidity chamber. Coverslips were washed with wash buffer A two times for 5 min and then incubated with PLA probe solution (anti-mouse minus and anti-rabbit plus) for 1 h at 37 °C in a humidity chamber. Coverslips were washed with wash buffer A two times for 5 min. For the ligation step, 5× ligation buffer was diluted 1:5 in high purity water and ligase was added to the 1× ligation buffer at 1:40 dilution. After the wash, coverslips were incubated in the diluted ligase for 30 min at 37 °C in a humidity chamber. Post-ligation, coverslips were washed with wash buffer A two times for 5 min. For the amplification step, 5× amplification buffer was diluted 1:5 in high purity water and polymerase was added to the 1× amplification buffer at 1:80 dilution. […]

Δa-syn(103–140) = assay: Truncated a-syn (103-140 lacking) HA immunofluorescence in rat cortical neurons; conditions: a-syn lacking amino acids 103–140
Excerpt: Adeno-associated virus (AAV) of a 1/2 serotype was used to express A53T a-syn (AAV-A53T), a truncated version of A53T a-syn lacking amino acids 103–140 (Δa-syn(103–140)), and WT a-syn, fused to either the N-terminal half of YFP (AAV-V1S) or the C-terminal half of YFP (AAV-SV2), all under the control of the CAG promoter, a hybrid of the chicken beta-actin (CBA) promoter fused with the cytomegalovirus (CMV) immediate early enhancer sequence (GeneDetect Ltd.)[46].
Pregnant rats (E17) of the Sprague-Dawley strain were purchased from Envigo. Embryos were surgically removed from the mothers and cortices dissected in Hanks Balanced salt solution (Gibco). […]
After fixation, cells were permeabilized with 0.2% Triton-X-100 for 15 min, washed three times with PBS and then incubated with blocking solution (1% BSA, 22.52 mg/mL glycine, 0.1% Tween-20 in PBS or 0.4% saponin, 1% BSA, and 5% goat or donkey serum in PBS) for 1 h. […] Following another three washes with PBS, nuclei were counterstained with DAPI (ThermoFisher) and then coverslips were mounted on slides using Dako fluorescence mounting medium (Agilent) and sealed using clear nail varnish.

Sequence: DEEIERQLKALG [PDpep1.3]
- Effect on a-syn-CHMP2B interaction [1]: disrupted this a-syn-CHMP2B interaction
- Effect on a-syn-CHMP2B interaction, PLA (a-syn-CHMP2B interaction): reduction of the interaction between endogenous WT a-syn and CHMP2B
- Effect on truncated a-syn levels (Δa-syn(103–140)): did not reduce levels of this truncated a-syn
